# Measured values taken from ChEMBL document CHEMBL1157659, “Design, synthesis, and biological evaluation of 3-[4-(2-hydroxyethyl)piperazin-1-yl]-7-(6-methoxypyridin-3-yl)-1-(2-propoxyethyl)pyrido[3,4-b]pyrazin-2(1H)-one, a potent, orally active, brain penetrant inhibitor of phosphodiesterase 5 (PDE5)” (J Med Chem, 2010).
# Active and inactive are the calls of the source. No cut-off for these calls is given here.
# Assays:
# Homo sapiens [1] = organism: Homo sapiens; experiment: Selectivity ratio of IC50 for human recombinant PDE11 to IC50 for human platelet PDE5
# Homo sapiens [2] = organism: Homo sapiens; experiment: Selectivity ratio of IC50 for human retina PDE6 to IC50 for human platelet PDE5
# [3] = target: cGMP-specific 3',5'-cyclic phosphodiesterase (Homo sapiens, UniProt O76074); experiment: Inhibition of human platelet PDE5 assessed as reduction in conversion of [3H]cGMP to [3H]GMP after 2 hr by scintillation proximity assay
# [4] = target: Voltage-gated inwardly rectifying potassium channel KCNH2 (Homo sapiens, UniProt Q12809); experiment: Inhibition of human ERG by patch-clamp method
# Sequence of Voltage-gated inwardly rectifying potassium channel KCNH2 (Q12809 whole entry): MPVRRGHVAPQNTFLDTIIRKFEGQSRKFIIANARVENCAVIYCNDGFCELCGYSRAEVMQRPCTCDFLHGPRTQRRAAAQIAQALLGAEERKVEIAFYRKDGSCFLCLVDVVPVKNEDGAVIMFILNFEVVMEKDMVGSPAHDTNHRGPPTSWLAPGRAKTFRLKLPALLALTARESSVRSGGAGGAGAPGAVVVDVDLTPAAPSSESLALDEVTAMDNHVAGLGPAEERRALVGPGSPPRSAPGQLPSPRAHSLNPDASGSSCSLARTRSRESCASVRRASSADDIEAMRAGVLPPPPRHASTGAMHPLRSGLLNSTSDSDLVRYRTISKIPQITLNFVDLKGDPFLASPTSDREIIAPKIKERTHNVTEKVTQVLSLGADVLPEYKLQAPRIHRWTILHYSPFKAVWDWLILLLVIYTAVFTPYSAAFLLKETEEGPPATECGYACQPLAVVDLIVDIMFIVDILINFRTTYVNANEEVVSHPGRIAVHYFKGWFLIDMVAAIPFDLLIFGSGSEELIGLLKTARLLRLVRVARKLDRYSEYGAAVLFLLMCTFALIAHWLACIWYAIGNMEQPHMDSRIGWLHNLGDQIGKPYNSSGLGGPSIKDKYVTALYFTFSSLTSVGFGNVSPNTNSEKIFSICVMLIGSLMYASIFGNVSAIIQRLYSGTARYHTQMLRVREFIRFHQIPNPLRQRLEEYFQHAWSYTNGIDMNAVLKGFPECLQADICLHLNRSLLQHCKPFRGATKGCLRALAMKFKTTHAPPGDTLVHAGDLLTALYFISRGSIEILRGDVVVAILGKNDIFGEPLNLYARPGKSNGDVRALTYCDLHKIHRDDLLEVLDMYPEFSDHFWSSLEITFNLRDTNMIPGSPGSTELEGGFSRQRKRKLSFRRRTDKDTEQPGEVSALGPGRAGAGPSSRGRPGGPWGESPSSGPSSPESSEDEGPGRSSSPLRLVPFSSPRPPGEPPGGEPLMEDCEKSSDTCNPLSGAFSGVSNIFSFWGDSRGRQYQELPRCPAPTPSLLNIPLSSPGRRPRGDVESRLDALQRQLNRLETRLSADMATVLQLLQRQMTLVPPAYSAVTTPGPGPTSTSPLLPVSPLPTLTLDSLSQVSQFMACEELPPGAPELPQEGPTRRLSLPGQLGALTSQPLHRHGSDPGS
# [5] = Clearance in Sprague-Dawley rat at 1 mg/kg, iv; assay type: ADME, organism-based; design: dose 1 mg/kg, route intravenous; settings: in vivo
# [6] = Metabolic stability in rat microsomes assessed as compound remaining after 30 mins; assay type: ADME, Microsome; settings: read-out: Stability
# [7] = Metabolic stability in human microsomes assessed as compound remaining after 30 mins; assay type: ADME, Microsome; settings: read-out: Stability
# [8] = Plasma protein binding in rat; assay type: ADME, cell-free; settings: read-out: PPB (converted)
# [9] = Aqueous solubility at pH 7.4; assay type: physicochemical
# Plasma [10] = experiment: Plasma protein binding in human; assay type: ADME, cell-free
# [11] = Fraction unbound in rat plasma; assay type: ADME, cell-free
# Plasma [12] = experiment: Fraction unbound in human plasma; assay type: ADME, cell-free
# Homo sapiens [13] = organism: Homo sapiens; experiment: Plasma protein binding in human; settings: read-out: PPB (converted)
# Homo sapiens [14] = organism: Homo sapiens; experiment: Fraction unbound in human plasma
# Rattus norvegicus [15] = experiment: Antihypertensive activity in iv dosed anesthetized SHR rat assessed as reduction of systemic arterial blood pressure at free plasma concentration of 2.3 nM; assay type: functional, organism-based; settings: Artery
# [16] = Oral bioavailability in Sprague-Dawley rat at 1 mg/kg; assay type: ADME, organism-based; settings: in vivo
# [17] = Clearance in dog; assay type: ADME, organism-based, Canis lupus familiaris; settings: in vivo
# [18] = Bioavailability in dog; assay type: ADME, organism-based, Canis lupus familiaris; settings: in vivo
# [19] = Metabolic stability in cannulated Sprague-Dawley rat bile duct assessed as compound remaining after 6 hrs; assay type: ADME; settings: read-out: Stability
# [20] = Renal clearance in Sprague-Dawley rat as % compound recovered; assay type: ADME, organism-based, Kidney; settings: urine, read-out: Recovered in urine
# [21] = Renal clearance in dog as % compound recovered; assay type: ADME, organism-based, Canis lupus familiaris, Kidney; settings: urine, read-out: Recovered in urine
# [22] = Ratio of drug level in brain to blood in Sprague-Dawley rat at 10 mg/kg, sc administered as single dose measured after 2 hrs; assay type: ADME, organism-based; design: dose 10 mg/kg, route subcutaneous; settings: read-out: BBR
# [23] = target: Dual specificity calcium/calmodulin-dependent 3',5'-cyclic nucleotide phosphodiesterase 1A (Homo sapiens, UniProt P54750); experiment: Inhibition of PDE1A
# Sequence of Dual specificity calcium/calmodulin-dependent 3',5'-cyclic nucleotide phosphodiesterase 1A (P54750 whole entry): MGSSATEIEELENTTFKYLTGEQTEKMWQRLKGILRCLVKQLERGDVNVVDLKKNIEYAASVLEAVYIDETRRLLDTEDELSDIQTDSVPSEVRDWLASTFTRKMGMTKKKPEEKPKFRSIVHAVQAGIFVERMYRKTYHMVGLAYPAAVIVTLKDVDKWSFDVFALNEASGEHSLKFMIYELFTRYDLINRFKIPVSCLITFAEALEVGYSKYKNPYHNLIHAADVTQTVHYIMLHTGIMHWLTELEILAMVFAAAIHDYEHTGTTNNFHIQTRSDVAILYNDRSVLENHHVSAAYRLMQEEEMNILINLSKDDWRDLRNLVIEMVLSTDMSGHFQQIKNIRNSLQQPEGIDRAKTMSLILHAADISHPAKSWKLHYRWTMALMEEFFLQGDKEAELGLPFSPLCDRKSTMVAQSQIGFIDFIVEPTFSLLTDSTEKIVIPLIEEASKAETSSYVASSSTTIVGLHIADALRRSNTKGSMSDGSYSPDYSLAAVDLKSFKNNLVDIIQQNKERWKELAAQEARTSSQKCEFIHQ
# [24] = target: Dual specificity calcium/calmodulin-dependent 3',5'-cyclic nucleotide phosphodiesterase 1B (Homo sapiens, UniProt Q01064); experiment: Inhibition of PDE1B
# Sequence of Dual specificity calcium/calmodulin-dependent 3',5'-cyclic nucleotide phosphodiesterase 1B (Q01064 whole entry): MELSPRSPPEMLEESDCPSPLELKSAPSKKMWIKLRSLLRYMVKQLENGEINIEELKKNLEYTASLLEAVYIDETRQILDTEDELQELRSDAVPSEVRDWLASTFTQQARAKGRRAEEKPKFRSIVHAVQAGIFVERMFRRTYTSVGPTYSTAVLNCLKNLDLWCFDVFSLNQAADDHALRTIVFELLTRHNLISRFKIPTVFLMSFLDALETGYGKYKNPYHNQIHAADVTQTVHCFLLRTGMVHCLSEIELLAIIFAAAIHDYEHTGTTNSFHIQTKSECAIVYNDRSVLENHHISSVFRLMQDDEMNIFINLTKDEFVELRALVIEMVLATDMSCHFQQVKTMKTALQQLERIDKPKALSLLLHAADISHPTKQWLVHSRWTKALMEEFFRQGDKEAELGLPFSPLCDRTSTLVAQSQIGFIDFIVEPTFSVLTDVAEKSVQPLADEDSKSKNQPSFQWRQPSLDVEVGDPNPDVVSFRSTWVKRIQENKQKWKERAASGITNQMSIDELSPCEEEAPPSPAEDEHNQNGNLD
# [25] = target: Dual specificity calcium/calmodulin-dependent 3',5'-cyclic nucleotide phosphodiesterase 1C (Homo sapiens, UniProt Q14123); experiment: Inhibition of PDE1C
# [26] = Inhibition of PDE2
# [27] = target: cGMP-inhibited 3',5'-cyclic phosphodiesterase 3A (Homo sapiens, UniProt Q14432); experiment: Inhibition of PDE3A
# [28] = target: cGMP-inhibited 3',5'-cyclic phosphodiesterase 3B (Homo sapiens, UniProt Q13370); experiment: Inhibition of PDE3B
# [29] = target: 3',5'-cyclic-AMP phosphodiesterase 4A (Homo sapiens, UniProt P27815); experiment: Inhibition of PDE4A
# [30] = target: 3',5'-cyclic-AMP phosphodiesterase 4B (Homo sapiens, UniProt Q07343); experiment: Inhibition of PDE4B
# Sequence of 3',5'-cyclic-AMP phosphodiesterase 4B (Q07343 whole entry): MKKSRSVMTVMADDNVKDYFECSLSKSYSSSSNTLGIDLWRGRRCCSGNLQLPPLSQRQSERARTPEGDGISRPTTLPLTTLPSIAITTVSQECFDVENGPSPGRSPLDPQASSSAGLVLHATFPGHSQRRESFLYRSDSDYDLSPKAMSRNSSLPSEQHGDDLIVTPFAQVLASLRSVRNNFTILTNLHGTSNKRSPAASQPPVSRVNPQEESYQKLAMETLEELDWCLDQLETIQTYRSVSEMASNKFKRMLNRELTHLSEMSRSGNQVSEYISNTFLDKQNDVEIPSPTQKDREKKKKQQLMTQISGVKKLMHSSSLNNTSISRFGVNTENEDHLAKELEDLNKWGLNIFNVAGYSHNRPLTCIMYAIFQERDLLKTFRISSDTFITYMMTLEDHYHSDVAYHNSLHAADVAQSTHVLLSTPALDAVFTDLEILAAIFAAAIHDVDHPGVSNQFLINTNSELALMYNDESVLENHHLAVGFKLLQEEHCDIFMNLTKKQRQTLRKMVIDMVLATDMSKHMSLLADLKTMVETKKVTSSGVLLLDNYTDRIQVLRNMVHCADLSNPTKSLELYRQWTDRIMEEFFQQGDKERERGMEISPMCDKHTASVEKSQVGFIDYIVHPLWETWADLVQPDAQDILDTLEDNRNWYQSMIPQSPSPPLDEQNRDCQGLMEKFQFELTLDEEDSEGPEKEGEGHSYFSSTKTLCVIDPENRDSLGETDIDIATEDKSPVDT
# [31] = target: 3',5'-cyclic-AMP phosphodiesterase 4C (Homo sapiens, UniProt Q08493); experiment: Inhibition of PDE4C
# Sequence of 3',5'-cyclic-AMP phosphodiesterase 4C (Q08493 whole entry): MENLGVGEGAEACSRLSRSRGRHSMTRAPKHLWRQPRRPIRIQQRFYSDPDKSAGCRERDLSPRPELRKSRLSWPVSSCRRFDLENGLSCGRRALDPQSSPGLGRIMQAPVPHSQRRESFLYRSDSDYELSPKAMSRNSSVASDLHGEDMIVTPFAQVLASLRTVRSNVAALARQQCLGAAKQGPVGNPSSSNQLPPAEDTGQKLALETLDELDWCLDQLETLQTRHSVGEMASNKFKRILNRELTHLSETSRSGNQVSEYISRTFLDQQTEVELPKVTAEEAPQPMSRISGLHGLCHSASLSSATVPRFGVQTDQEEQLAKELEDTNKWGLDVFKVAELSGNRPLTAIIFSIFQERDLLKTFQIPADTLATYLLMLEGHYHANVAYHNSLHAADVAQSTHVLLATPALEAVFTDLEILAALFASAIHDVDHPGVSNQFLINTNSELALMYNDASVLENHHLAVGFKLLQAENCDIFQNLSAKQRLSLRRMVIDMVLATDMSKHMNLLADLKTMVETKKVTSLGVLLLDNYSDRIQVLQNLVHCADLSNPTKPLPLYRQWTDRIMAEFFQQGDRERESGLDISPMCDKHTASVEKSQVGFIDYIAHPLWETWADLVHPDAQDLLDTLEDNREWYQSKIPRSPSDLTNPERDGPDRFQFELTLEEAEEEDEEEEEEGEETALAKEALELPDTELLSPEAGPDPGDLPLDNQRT
# [32] = target: 3',5'-cyclic-AMP phosphodiesterase 4D (Homo sapiens, UniProt Q08499); experiment: Inhibition of PDE4D
# Sequence of 3',5'-cyclic-AMP phosphodiesterase 4D (Q08499 whole entry): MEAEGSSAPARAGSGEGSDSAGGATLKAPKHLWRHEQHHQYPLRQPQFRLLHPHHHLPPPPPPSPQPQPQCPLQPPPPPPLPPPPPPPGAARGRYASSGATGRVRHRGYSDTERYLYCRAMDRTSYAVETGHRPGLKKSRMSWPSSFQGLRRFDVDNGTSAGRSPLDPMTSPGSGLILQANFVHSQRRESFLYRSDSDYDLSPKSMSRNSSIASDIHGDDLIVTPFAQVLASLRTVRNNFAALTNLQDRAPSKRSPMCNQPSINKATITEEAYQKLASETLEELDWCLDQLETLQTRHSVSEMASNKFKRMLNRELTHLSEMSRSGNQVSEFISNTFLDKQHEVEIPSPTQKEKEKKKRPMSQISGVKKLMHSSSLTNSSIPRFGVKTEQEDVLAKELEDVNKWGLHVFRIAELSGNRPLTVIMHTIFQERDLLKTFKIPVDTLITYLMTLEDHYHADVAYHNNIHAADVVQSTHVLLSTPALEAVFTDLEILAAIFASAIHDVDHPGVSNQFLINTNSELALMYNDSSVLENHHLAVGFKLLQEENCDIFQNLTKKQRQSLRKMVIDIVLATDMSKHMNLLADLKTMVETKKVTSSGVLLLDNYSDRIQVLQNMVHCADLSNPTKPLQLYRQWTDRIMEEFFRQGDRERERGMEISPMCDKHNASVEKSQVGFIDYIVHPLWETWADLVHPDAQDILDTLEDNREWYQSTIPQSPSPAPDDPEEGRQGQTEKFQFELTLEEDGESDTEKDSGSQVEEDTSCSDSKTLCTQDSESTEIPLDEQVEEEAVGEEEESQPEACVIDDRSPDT
# [33] = Inhibition of PDE7
# [34] = target: 3',5'-cyclic-AMP phosphodiesterase 7B (Homo sapiens, UniProt Q9NP56); experiment: Inhibition of PDE7B
# Sequence of 3',5'-cyclic-AMP phosphodiesterase 7B (Q9NP56 whole entry): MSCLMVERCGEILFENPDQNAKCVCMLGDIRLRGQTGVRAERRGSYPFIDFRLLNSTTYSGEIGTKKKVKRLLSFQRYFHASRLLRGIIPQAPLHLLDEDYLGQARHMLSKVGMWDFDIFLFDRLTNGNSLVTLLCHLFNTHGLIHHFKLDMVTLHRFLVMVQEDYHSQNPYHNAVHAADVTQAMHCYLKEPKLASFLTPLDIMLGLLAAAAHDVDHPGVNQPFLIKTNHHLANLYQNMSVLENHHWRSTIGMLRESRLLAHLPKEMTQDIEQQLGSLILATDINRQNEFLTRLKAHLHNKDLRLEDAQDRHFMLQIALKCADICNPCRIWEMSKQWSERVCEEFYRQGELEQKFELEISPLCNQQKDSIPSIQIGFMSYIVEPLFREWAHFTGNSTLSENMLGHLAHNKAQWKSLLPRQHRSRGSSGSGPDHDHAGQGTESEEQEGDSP
# [35] = target: High affinity cAMP-specific and IBMX-insensitive 3',5'-cyclic phosphodiesterase 8A (Homo sapiens, UniProt O60658); experiment: Inhibition of PDE8A
# [36] = target: High affinity cAMP-specific and IBMX-insensitive 3',5'-cyclic phosphodiesterase 8B (Homo sapiens, UniProt O95263); experiment: Inhibition of PDE8B
# [37] = Inhibition of PDE9
# Rattus norvegicus [38] = experiment: Antihypertensive activity in anesthetized SHR rat assessed as reduction of systolic blood pressure at 2 mg/kg, po after 24 hrs relative to control; assay type: functional, Artery
# Rattus norvegicus [39] = experiment: Antihypertensive activity in iv dosed anesthetized SHR rat assessed as reduction of systemic arterial blood pressure administered as three successive escalating doses measured during 30 to 50 mins portion of each 1 hr steady state infusion; assay type: functional, organism-based; settings: Artery
# [40] = Ratio of free drug level in iv dosed SHR rat plasma administered as three successive escalating doses to IC50 for human platelet PDE5; assay type: ADME, organism-based; settings: in vivo
# Rattus norvegicus [41] = experiment: Toxicity in iv dosed SHR rat administered as three successive escalating doses; assay type: organism-based; settings: in vivo
# Rattus norvegicus [42] = experiment: Free plasma concentration in iv dosed anesthetized SHR rat administered as three successive escalating doses; assay type: ADME, organism-based; settings: in vivo
# [43] = Tmax in healthy human; assay type: ADME, organism-based; settings: in vivo
# [44] = Elimination half life in healthy human; assay type: ADME, organism-based; settings: in vivo, read-out: beta t1/2 (converted)
smiles,measurement,setting,value
CCCOCCn1c(=O)c(N2CCN(CC(C)(C)O)CC2)nc2cnc(-c3ccc(OC)nc3)cc21,Ratio IC50,Homo sapiens [1],1370
same,Ratio IC50,Homo sapiens [2],64
CCCOCCn1c(=O)c(N2CCN(C[C@H](C)O)CC2)nc2cnc(-c3ccc(OC)nc3)cc21,IC50,[3],0.00031 µM
same,Ratio IC50,Homo sapiens [1],1400
same,Ratio IC50,Homo sapiens [2],49
CCCOCCn1c(=O)c(N2CCNCC2)nc2cnc(-c3ccc(OC)nc3)cc21,IC50,[4],0.67 µM
same,clearance,[5],42 mL/min/kg
same,remaining at 0.5 h,[6],86%
same,remaining at 0.5 h,[7],86%
same,fraction unbound,[8],0.158
CCCOCCn1c(=O)c(N2C[C@H]3C[C@@H]2CN3)nc2cnc(-c3ccc(OC)nc3)cc21,Ratio IC50,Homo sapiens [1],456
same,Ratio IC50,Homo sapiens [2],93
CCCOCCn1c(=O)c(N2CCN([C@H](C)[C@@H](C)O)CC2)nc2cnc(-c3ccc(OC)nc3)cc21 (racemic),IC50,[3],0.0003 µM
same,Ratio IC50,Homo sapiens [1],2090
same,Ratio IC50,Homo sapiens [2],68
CCCOCCn1c(=O)c(N2CCCN(CCCO)CC2)nc2cnc(-c3ccc(OC)nc3)cc21,Ratio IC50,Homo sapiens [1],> 1860
same,Ratio IC50,Homo sapiens [2],94
CCCOCCn1c(=O)c(NCCN)nc2cnc(-c3ccc(OC)nc3)cc21,Ratio IC50,Homo sapiens [1],> 8000
same,Ratio IC50,Homo sapiens [2],4840
same,solubility,[9],> 100 µM
same,clearance,[5],170 mL/min/kg
same,remaining at 0.5 h,[6],98%
same,remaining at 0.5 h,[7],97%
same,fraction unbound,[8],0.166
same,PPB,Plasma [10],69.4%
same,fraction unbound,[11],0.18
same,Fu,Plasma [12],18%
CCCOCCn1c(=O)c(N2CCN(CCCO)CC2)nc2cnc(-c3ccc(OC)nc3)cc21,IC50,[3],0.00018 µM
same,Ratio IC50,Homo sapiens [1],4260
same,Ratio IC50,Homo sapiens [2],62
CCCOCCn1c(=O)c(NCCNCCO)nc2cnc(-c3ccc(OC)nc3)cc21,Ratio IC50,Homo sapiens [1],> 1780
same,Ratio IC50,Homo sapiens [2],242
same,solubility,[9],> 100 µM
same,IC50,[4],4.5 µM
same,clearance,[5],582 mL/min/kg
same,remaining at 0.5 h,[6],100%
same,remaining at 0.5 h,[7],95%
same,fraction unbound,[8],0.226
same,fraction unbound,[11],0.18
same,fraction unbound,Homo sapiens [13],0.212
same,fraction unbound,Homo sapiens [14],0.18
CCCOCCn1c(=O)c(N2CCCN(CCO)CC2)nc2cnc(-c3ccc(OC)nc3)cc21,Ratio IC50,Homo sapiens [1],> 2780
same,Ratio IC50,Homo sapiens [2],70
CCCOCCn1c(=O)c(N2CCN(CCO)CC2)nc2cnc(-c3ccc(OC)nc3)cc21 [PF-03049423],Activity,Rattus norvegicus [15],Active
same,IC50,[3],0.0002 µM
same,Ratio IC50,Homo sapiens [1],2460
same,Ratio IC50,Homo sapiens [2],158
same,IC50,[4],1.79 µM
same,clearance,[5],37 mL/min/kg
same,remaining at 0.5 h,[6],89%
same,remaining at 0.5 h,[7],85%
same,fraction unbound,[8],0.171
same,PPB,Plasma [10],67.8%
same,bioavailability,[16],69%
same,fraction unbound,[11],0.18
same,Fu,Plasma [12],18%
same,clearance,[17],5.8 mL/min/kg
same,bioavailability,[18],92%
same,remaining at 6 h,[19],2%
same,dose excreted,[20],< 2%
same,dose excreted,[21],< 2%
same,Kp at 2 h,[22],4
same,IC50,[23],> 2 µM
same,IC50,[24],> 2 µM
same,IC50,[25],> 2 µM
same,IC50,[26],> 2 µM
same,IC50,[27],> 2 µM
same,IC50,[28],> 2 µM
same,IC50,[29],> 2 µM
same,IC50,[30],> 2 µM
same,IC50,[31],> 2 µM
same,IC50,[32],> 2 µM
same,IC50,[33],> 2 µM
same,IC50,[34],> 2 µM
same,IC50,[35],> 2 µM
same,IC50,[36],> 2 µM
same,IC50,[37],> 2 µM
same,Activity,Rattus norvegicus [38],25 mmHg
same,Activity,Rattus norvegicus [39],Active
same,Ratio,[40],11
same,Activity,Rattus norvegicus [41],Non-toxic
same,Cp(f),Rattus norvegicus [42],2.3 nM
same,Tmax,[43],1 h
same,half-life,[44],17 h
CCCOCCn1c(=O)c(N2CCN(C[C@@H](C)O)CC2)nc2cnc(-c3ccc(OC)nc3)cc21,IC50,[3],0.00023 µM
same,Ratio IC50,Homo sapiens [1],2380
same,Ratio IC50,Homo sapiens [2],134
same,IC50,[4],0.23 µM
CCCOCCn1c(=O)c(N2CCN([C@@H](C)[C@@H](C)O)CC2)nc2cnc(-c3ccc(OC)nc3)cc21 (racemic),Ratio IC50,Homo sapiens [1],1740
same,Ratio IC50,Homo sapiens [2],134
same,IC50,[4],0.054 µM
CCCOCCn1c(=O)c(N2CCN(CC)CC2)nc2cnc(-c3ccc(OC)nc3)cc21,IC50,[3],0.00022 µM
